Experimental data from PubChem BioAssay (NCI).
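48-hour exposure; five concentrations; linearly interpolated endpoints. Abbreviation: GI50, concentration required for 50% inhibition of growth. At the TGI there is no net growth.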

Columns and labels:
Experiment in all cases: NCI anticancer screen, dose series, 48 h
[1] = tested on: MCF7 breast
[2] = tested on: BT-549 breast
[3] = tested on: SK-OV-3 ovarian
[4] = tested on: DU-145 prostate
[5] = tested on: 786-0 renal
[6] = tested on: MDA-N
[7] = tested on: UACC-62 melanoma
[8] = tested on: ACHN renal
[9] = tested on: RXF 393 renal
[10] = tested on: SR leukemia
[11] = tested on: MDA-MB-435
[12] = tested on: HT29 colon
[13] = tested on: M14 melanoma
[14] = tested on: SNB-75 CNS
[15] = tested on: SF-268 CNS
[16] = tested on: CCRF-CEM leukemia
[17] = tested on: A549 NSCLC
[18] = tested on: SF-539 CNS

Row | SMILES | TGI [1] [µM] | TGI [2] [µM] | TGI [3] [µM] | TGI [4] [µM] | TGI [5] [µM] | TGI [6] [µM] | TGI [7] [µM] | TGI [8] [µM] | TGI [9] [µM] | TGI [10] [µM] | TGI [11] [µM] | TGI [12] [µM] | TGI [13] [µM] | TGI [14] [µM] | TGI [15] [µM] | TGI [16] [µM] | TGI [17] [µM] | TGI [18] [µM] | GI50 [9] [µM] | GI50 [15] [µM]
1 | CN1CCC23c4c5ccc(O)c4OC2c2[nH]c4ccccc4c2CC3(O)C1C5 (stereo not given) | > 100 | > 100 | > 100 | > 100 | 39.6 | 44.9 | 53.5 | 65.1 | 66.1 | > 100 | 36.9 | > 100 | 34.8 | > 100 | > 100 | 46.9 | > 100 | – | – | –
2 | O=[N+]([O-])/C(C(Cl)=C(Cl)Cl)=C(/Sc1ccccc1)N1CCCCC1 | > 100 | > 100 | > 100 | > 100 | > 100 | > 100 | > 100 | > 100 | > 100 | > 26.4 | > 100 | > 100 | > 100 | > 100 | > 100 | > 100 | > 100 | > 100 | – | –
3 | COc1cccc(C2C3=C(COC3=O)Oc3cc4c(cc32)OCO4)c1 (stereo not given) | > 100 | > 100 | – | 6.77 | > 66.4 | < 0.0202 | > 100 | > 53.1 | > 100 | > 100 | 0.0817 | 1.3 | > 100 | > 100 | > 62.6 | 7.74 | > 100 | 0.0667 | – | –
4 | COC(=O)c1ccccc1/C=C1\Cc2cc(C)c(C)cc2C1=O | > 100 | > 100 | – | > 100 | > 100 | > 100 | > 100 | > 100 | > 100 | > 100 | > 100 | > 100 | > 100 | 81.3 | > 100 | > 100 | > 100 | > 100 | – | –
5 | COc1cc(/C=C/c2cc(/C=C/c3ccc(O)c(OC)c3)oc(=O)c2)ccc1O | > 100 | 12.2 | > 65.2 | 6.82 | 34.9 | > 100 | 18.5 | 15.4 | 1.08 | > 31.2 | 22.5 | > 22.6 | > 100 | 4.61 | > 39.7 | > 26.1 | > 100 | > 100 | – | –
6 | CCOC(=O)/C=C(/C(=O)OCC)n1ccc(=O)n(/C(=C/C(=O)OCC)C(=O)OCC)c1=O | 19.9 | 30.2 | 43.7 | 34.9 | 5.86 | 26.7 | 28.3 | 8.06 | 9.62 | 13.5 | 22.1 | 26.8 | 10.6 | 32.6 | 43.9 | 3.53 | 32.7 | 34.2 | – | –
7 | Cc1ccc(/C=C/C(=O)c2cc(CN(C)C)c(O)c(CN(C)C)c2)cc1 | 50.1 | 35.4 | – | > 100 | 73.9 | 42.5 | – | 90.8 | 55 | 62.7 | 57 | 33 | 39.1 | 88.9 | > 100 | > 100 | 58.5 | 34.9 | – | –
8 | O=C=NCCCCCCN1C(=O)N2C(c3ccccc3)N(CCCCCCN=C=O)C(=O)N2C1c1ccccc1 (stereo not given) | > 100 | > 100 | – | > 100 | > 100 | > 100 | – | > 100 | > 100 | > 100 | > 100 | > 100 | > 100 | > 100 | > 100 | > 100 | > 100 | > 100 | – | –
9 | O=C1NC(N2CCCC(CO)C2)=N/C1=C\c1ccc(Cl)cc1 (stereo not given) | > 100 | > 100 | > 100 | > 100 | > 100 | > 100 | > 100 | > 100 | > 100 | > 100 | > 100 | > 100 | > 100 | > 100 | > 100 | > 100 | > 100 | > 100 | – | –
10 | Cc1cn(C2CC(N)C(C(=O)O)O2)c(=O)[nH]c1=O (stereo not given) | > 100 | > 100 | > 100 | > 100 | > 100 | > 100 | > 100 | > 100 | – | > 100 | > 100 | > 100 | > 100 | > 100 | > 100 | > 100 | > 100 | > 100 | – | –
11 | COC(=O)[C@@H]1C[C@@H]2c3ccccc3N(S(=O)(=O)c3ccccc3)[C@@H]2N1C(=O)OC | > 100 | > 100 | > 100 | > 100 | > 100 | > 100 | > 100 | > 100 | > 100 | > 100 | > 100 | > 100 | – | > 100 | > 100 | > 100 | > 100 | > 100 | – | –
12 | Cc1cc(OCC(=O)N/N=C/C(Br)=C/c2ccccc2)nc(SCC(=O)N/N=C/C(Br)=C/c2ccccc2)n1 | > 100 | > 100 | – | > 100 | > 100 | > 100 | > 100 | > 100 | > 100 | > 100 | > 100 | > 100 | > 100 | – | > 100 | > 100 | – | – | – | –
13 | Cc1c(C)c2c(c(N)c1C#N)C(=O)N(CCN1CCNCC1)C2=O | > 100 | > 100 | – | > 100 | > 100 | > 100 | 62.4 | > 100 | 70.6 | 95 | > 100 | – | > 100 | 77 | > 100 | > 100 | > 100 | > 100 | – | –
14 | O=C(c1ccc(Br)cc1)n1c2ccc(Br)cc2c2nc3ccccc3nc21 | > 100 | > 100 | – | > 100 | > 100 | > 100 | > 100 | > 100 | > 100 | > 100 | > 100 | > 100 | > 100 | > 100 | > 100 | > 100 | – | > 100 | – | –
15 | C=C(Cl)C(=C)CCC(Cl)C(C)C (stereo not given) | > 100 | > 100 | > 100 | > 100 | > 100 | > 100 | > 100 | > 100 | > 100 | > 100 | > 100 | > 100 | > 100 | – | > 100 | > 100 | > 100 | > 100 | – | –
16 | C[C@]12[C@@H]3CC[C@H]1[C@@H](OC(=O)Nc1cc([N+](=O)[O-])cc([N+](=O)[O-])c1)C(=O)N2CC3 | > 100 | > 100 | > 100 | > 100 | > 100 | > 100 | > 100 | > 100 | > 100 | > 100 | > 100 | > 100 | > 100 | > 100 | > 100 | > 100 | > 100 | – | – | –
17 | Cc1c(C)c(S(=O)(=O)N(CCCN)OCCCN)c(C)c2c1OC(C)(C)C2 | 38.4 | > 100 | > 100 | > 100 | 68 | 33.6 | > 100 | > 100 | 48.9 | > 100 | > 100 | > 100 | 34.1 | 59.5 | > 100 | 90 | > 100 | – | – | –
18 | NC(=O)NC(=O)c1cccc(NC(=O)CBr)c1 | 1.61 | 1.43 | 0.963 | 0.336 | < 0.0333 | < 0.0226 | 0.908 | 1.4 | 1.38 | 0.152 | < 0.0358 | < 0.0291 | 0.549 | 1.69 | < 0.0275 | – | 7.6 | – | – | –
19 | O=C(CCN1CCOCC1)Nc1ccc2sc3ccccc3c(=O)c2n1 | > 100 | > 100 | > 100 | > 100 | > 100 | > 100 | > 100 | > 100 | – | > 100 | > 100 | > 100 | > 100 | 85.1 | > 100 | > 100 | > 100 | > 100 | – | –
20 | O=C(O)CCCOc1cc(-c2ccccc2F)nc2cc3c(cc12)OCO3 | > 100 | > 100 | > 100 | > 100 | > 100 | 4.45 | > 100 | – | > 100 | > 100 | > 100 | > 100 | > 100 | > 100 | > 100 | 9.86 | > 100 | 63.2 | 7.68 | 16.3
21 | CCc1c(Cc2cc(C)cc(C)c2)n2c(nc1=O)SCC2CBr (stereo not given) | > 50 | > 50 | – | > 50 | > 50 | > 50 | > 50 | > 50 | > 50 | > 50 | > 50 | > 50 | > 50 | > 50 | > 50 | > 50 | > 50 | > 50 | – | –
